Values quoted from earlier work, collected in patent US20050201989A1, “Compositions and methods for ex vivo preservation of blood vessels for vascular grafts using inhibitors of tumor necrosis factor-alpha” (St. Camillus Medical, Inc., priority 2004, published 2005).

Test system: endothelial cells
Settings: general knowledge statement, no test described

## CCCC(=O)Nc1ncnc2c1ncn2[C@@H]1O[C@@H]2COP(=O)(O)O[C@H]2[C@H]1OC(=O)CCC [db cAMP, dibutyryl adenosine 3′,5′-cyclic monophosphate]
  db cAMP concentration that becomes toxic to endothelial cells: higher than 4 mM
